From patent US7893260B2, “Substituted quinazolin-4-one compounds for antagonizing TRPV3 function” (priority 2005, dated 2011)

How the values were obtained:
[1] = molecular target: T1, human TRPV3 (Homo sapiens, UniProt Q8NET8); experiment: Whole-cell patch clamp, cells expressing human TRPV3; assay type: cell-based; conditions: human TRPV3 IC50 converted to mass concentration
T1 construct: expressed in transfected cells; host or cells: HEK293/TREx (Invitrogen), tetracycline-inducible
T1 sequence (Q8NET8 1-790): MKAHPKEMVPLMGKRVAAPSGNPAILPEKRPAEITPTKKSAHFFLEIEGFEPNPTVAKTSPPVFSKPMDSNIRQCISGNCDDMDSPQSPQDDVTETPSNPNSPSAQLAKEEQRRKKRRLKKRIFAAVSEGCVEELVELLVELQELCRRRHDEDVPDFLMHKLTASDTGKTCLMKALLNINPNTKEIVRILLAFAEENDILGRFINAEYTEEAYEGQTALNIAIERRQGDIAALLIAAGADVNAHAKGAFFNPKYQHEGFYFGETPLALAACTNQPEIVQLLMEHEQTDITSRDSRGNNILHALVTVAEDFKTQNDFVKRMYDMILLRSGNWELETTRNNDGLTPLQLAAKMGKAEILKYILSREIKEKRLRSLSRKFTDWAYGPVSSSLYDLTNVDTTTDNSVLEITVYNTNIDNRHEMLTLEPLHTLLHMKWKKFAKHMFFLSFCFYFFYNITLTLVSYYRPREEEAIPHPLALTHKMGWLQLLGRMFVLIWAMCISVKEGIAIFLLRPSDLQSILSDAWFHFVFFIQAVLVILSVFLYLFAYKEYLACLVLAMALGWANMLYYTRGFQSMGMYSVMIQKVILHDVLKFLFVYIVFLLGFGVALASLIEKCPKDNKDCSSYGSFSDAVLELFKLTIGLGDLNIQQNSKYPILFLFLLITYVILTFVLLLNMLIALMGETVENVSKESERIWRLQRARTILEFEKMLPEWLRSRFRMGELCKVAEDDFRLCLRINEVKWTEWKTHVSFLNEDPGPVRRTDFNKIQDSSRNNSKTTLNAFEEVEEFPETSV
Excerpt: (§1) Whole-cell patch clamp experiments permit the detection of currents through the TRPV3 channel in the cell line described above. A glass electrode is brought into contact with a single cell and the membrane is then ruptured, permitting control of the voltage of the cell membrane and measurement of currents flowing across the membrane using the amplifier attached to the electrode. A perfusion system permits control of the extracellular solution, including the addition of blockers and activators of the current. The current can be activated by heating this solution to 28° C. or warmer or by addition of 20 μM 2-APB to the solution.
(§2) TRPV3 cells were induced 20-48 hours, removed from growth plates, and replated at low density (to attain good single-cell physical separation) on glass coverslips for measurement. In some cases, cells were grown in low density overnight on glass coverslips. Patch clamp recordings were made in the whole-cell mode with a holding potential of −40 mV. […] Currents elicited were quantified at −80 mV and +80 mV. The internal solution consisted of 140 mM cesium aspartate, 10 mM EGTA, 2.27 mM MgCl2, 1.91 mM CaCl2 and 10 mM HEPES, pH to 7.2 with KOH; with 50 nM calculated free Ca^2+. […]
(§3) The plasma levels of a TRPV3 inhibitor (compound 82) were determined via HPLC/MS/MS following administration to male Sprague-Dawley rats.

[2] = molecular target: T2, rat TRPV3 (Rattus norvegicus, UniProt Q4QYD9); experiment: Whole-cell patch clamp, cells expressing rat TRPV3; assay type: cell-based; conditions: rat TRPV3 IC50 converted to mass concentration
T2 construct: expressed in transfected cells
T2 sequence (Q4QYD9 1-791): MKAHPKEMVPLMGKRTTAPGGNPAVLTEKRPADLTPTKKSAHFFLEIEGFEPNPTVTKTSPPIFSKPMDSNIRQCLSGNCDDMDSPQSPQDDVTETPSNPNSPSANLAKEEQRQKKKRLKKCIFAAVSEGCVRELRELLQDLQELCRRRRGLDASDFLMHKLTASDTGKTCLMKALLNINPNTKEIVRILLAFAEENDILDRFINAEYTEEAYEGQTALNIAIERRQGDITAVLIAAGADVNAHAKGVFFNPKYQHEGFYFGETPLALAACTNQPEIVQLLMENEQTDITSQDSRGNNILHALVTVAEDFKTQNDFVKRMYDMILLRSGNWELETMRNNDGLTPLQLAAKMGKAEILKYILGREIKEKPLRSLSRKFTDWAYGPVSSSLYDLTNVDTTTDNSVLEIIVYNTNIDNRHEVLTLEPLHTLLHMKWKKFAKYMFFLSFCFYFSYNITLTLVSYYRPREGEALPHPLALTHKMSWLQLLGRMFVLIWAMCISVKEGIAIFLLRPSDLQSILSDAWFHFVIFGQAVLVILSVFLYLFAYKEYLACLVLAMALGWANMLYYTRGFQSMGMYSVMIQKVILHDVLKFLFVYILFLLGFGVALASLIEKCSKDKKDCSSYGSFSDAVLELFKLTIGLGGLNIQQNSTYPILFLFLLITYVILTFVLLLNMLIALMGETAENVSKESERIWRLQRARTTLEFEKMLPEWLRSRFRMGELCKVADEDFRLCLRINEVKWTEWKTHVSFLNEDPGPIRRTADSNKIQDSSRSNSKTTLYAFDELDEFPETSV
Excerpt: as §1, §2, §3

[3] = tested on: carrageenan model of acute inflammatory pain; experiment: Carrageenan model of acute inflammatory pain (thermal hyperalgesia, Hargreaves); assay type: in vivo, rats
Description: As outlined above, the carrageenan model is a model of acute inflammatory pain. As such, it may be used to evaluate effectiveness in relieving pain caused by inflammation, for example, pain due to arthritis.
Briefly, naive rats were pretested for sensitivity to a heat stimulus using the Hargreaves apparatus. The next day, 100 μL of λ-carrageenan was injected into the plantar surface of the right hindpaw approximately 4.5 hours before testing. 30-60 minutes before testing the rats were injected intraperitoneally with vehicle or drug (to evaluate the efficacy of a TRPV3 inhibitor administered IP) or were administered vehicle or drug orally (PO; to evaluate the efficacy of a TRPV3 inhibitor administered orally).
In this study, the drug administered was either a TRPV3 inhibitor (compound 82), the TRPV1 inhibitor, A-425619 (produced by Abbott; maximal efficacious dose, 40 mg/kg IP; El Kouhen et al, 2005, J Pharmacol Exp Ther 314: 400-4091; Honore et al., 2005, J Pharmacol Exp Ther 314: 410-421), or the non-steroidal anti-inflammatory diclofenac. Following administration of both carrageenan and drug or vehicle control, the thermal escape latency was measured. Data are expressed as a percentage comparing the recorded Paw Withdrawal Latencies (PWLs) in seconds to that pre-carrageenan administration.

[4] = Plasma levels / pharmacokinetics after IV or oral administration; assay type: in vivo, male Sprague-Dawley rats; conditions: PO suspension 50 mg/kg, rat
Description: as §3
To evaluate pharmacokinetic properties of this TRPV3 inhibitor, rats were administered a single intravenous (IV) bolus dose of […] or an oral dose of a suspension of 50 mg/kg. For intraveneous administration, the TRPV3 inhibitor solution was formulated in PBS/NaOH, pH 10.5, at a target concentration of 0.25 mg/mL. This solution was administered as a rapid bolus (2-3 seconds) at a dose volume of 4 mL/kg via the tail vein of conscious rats or via a jugular vein catheter in anesthetized rats. For oral administration, the TRPV3 inhibitor was formulated as a uniform suspension in CMC (carboxymethylcellulose) at a target concentration of 5 mg/mL, and administered by oral gavage at a dose volume of 10 mL/kg to conscious rats.

[5] = Plasma, brain and CSF levels after IP or PO administration; assay type: in vivo; conditions: 0.5, 1, 4 hours post IP 200 or 50 mg/kg or PO 200 mg/kg, rats
Excerpt: For each time point evaluated, plasma levels are depicted by the left-most bar, brain levels are depicted by the center bar, and CSF levels are depicted by the right-most bar. […] For each time point evaluated, plasma levels are depicted by the left-most bar, brain levels are depicted by the center bar, and CSF levels are depicted by the right-most bar. […] For each time point evaluated, plasma levels are depicted by the left-most bar, brain levels are depicted by the center bar, and CSF levels are depicted by the right-most bar.

With COc1cccc(/C=C/c2nc3ccccc3c(=O)n2-c2ccccc2)c1O [compound 82] as the compound, how does the “effective concentration corresponding to IC50” value [1] read?
Its value is “approximately 94 ng/mL”.

What about the “effective concentration corresponding to IC50” value [2] of the same compound?
Its value is about 0.105 µg/mL.

What about the “reduction of thermal hyperalgesia in carrageenan model” value (“reduction of thermal hyperalgesia” below) ([3]; IP, 50 mg/kg) of the same compound?
Its value is “effective”.

And the “reduction of thermal hyperalgesia” value ([3]; IP, 200 mg/kg)?
Its value is “effective”.

What about the “reduction of thermal hyperalgesia” value ([3]; oral, 200 mg/kg) of the same compound?
The value was “effective”.

And the “reducing pain in the carrageenan model” value ([3]; rats, thermal hyperalgesia)?
Its value is “efficacious in reducing pain”.

And the “estimated half-life (T1/2)” value [4]?
Its value is “one”.

And the “detection in plasma, brain and CSF (central penetration)” value [5]?
Its value is “detected not only in plasma, but also in brain and CSF”.
